# Values of other authors in patent US20070014834A1, “Apparatus and methods of improved delivery of orally-administered therapeutic substances” (priority 2005, published 2007).
# Columns and labels:
# [1] = tested on: capsaicin-induced cough; details: for concentration of capsaicin required to produce a cough, compared with placebo: 10 healthy volunteers
# [2] = tested on: human vagus nerve
# [3] = tested on: citric acid-induced cough; details: guinea-pigs in vivo
# [4] = tested on: guinea-pig vagus nerve
SMILES,"concentration of capsaicin required to produce a cough, compared with placebo [1]",inhibition of capsaicin-induced sensory nerve depolarization [2],inhibition of citric acid-induced cough [3],inhibition of capsaicin-induced sensory nerve depolarization [4],effectiveness in stopping persistent coughs compared with codeine ([1]; compared with codeine),"suppression of capsaicin-induced cough ([1]; randomized, double-blind, placebo-controlled study in man)"
COc1ccc2c3c1O[C@H]1[C@@H](O)C=C[C@H]4[C@@H](C2)N(C)CC[C@@]341 [codeine],only marginally higher,,,,,
Cn1cnc2c1c(=O)[nH]c(=O)n2C [theobromine],around one third higher,directly inhibits,effectively inhibits,directly inhibits,nearly a third more effective,suppresses
